The subject of one experiment is ACHN cell line. In words: Drug screen of the SelleckChem kinase inhibitor library with and without SU-329, Cell-Titer Glo after 5 days. Conditions: kinase inhibitors 200 nM with and without 5 μM SU-329. Type of experiment: cell-based. Here is the method:
FIG. 8. Drug screen identifies signaling pathways that affect the impact of LKB1 activation. Drug screen of the SelleckChem kinase inhibitor library was performed in the ACHN cell line. Sensitivity to kinase inhibitors used at 200 nM with and without 5 μM of SU-329 was measured after 5 days with Cell-Titer Glo. […] The terms SU-329 and SU20668-0329-01 refer to the same compound.

Another experiment concerns the target T1, LKB1 (Homo sapiens, UniProt Q15831+Q7RTN6).
T1 sequence (Q15831 1-433): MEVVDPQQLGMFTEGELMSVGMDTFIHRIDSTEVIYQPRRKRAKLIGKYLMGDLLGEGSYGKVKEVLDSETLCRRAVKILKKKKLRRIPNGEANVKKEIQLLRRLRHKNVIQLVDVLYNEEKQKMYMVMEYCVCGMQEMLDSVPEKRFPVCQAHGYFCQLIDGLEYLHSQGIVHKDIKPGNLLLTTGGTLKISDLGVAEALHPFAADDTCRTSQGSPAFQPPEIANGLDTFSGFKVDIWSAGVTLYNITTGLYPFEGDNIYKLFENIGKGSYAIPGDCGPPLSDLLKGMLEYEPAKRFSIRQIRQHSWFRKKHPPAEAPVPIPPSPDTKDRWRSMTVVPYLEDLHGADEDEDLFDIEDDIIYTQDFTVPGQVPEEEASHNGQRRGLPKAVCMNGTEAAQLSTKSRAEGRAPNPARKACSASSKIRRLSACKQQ
T1 sequence (Q7RTN6 1-431): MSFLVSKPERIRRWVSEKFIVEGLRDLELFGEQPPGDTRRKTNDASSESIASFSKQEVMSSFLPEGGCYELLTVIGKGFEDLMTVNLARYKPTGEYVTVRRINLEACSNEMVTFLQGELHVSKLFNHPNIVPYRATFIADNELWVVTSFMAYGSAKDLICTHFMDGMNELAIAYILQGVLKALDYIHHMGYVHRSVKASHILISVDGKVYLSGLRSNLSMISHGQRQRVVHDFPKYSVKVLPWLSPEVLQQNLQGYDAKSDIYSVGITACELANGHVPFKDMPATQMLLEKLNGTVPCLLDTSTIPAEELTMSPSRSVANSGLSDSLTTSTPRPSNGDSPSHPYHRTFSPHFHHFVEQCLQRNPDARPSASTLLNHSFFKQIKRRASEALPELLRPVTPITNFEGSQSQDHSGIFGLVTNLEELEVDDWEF
T1 sequence (Q9Y376 1-341 partner): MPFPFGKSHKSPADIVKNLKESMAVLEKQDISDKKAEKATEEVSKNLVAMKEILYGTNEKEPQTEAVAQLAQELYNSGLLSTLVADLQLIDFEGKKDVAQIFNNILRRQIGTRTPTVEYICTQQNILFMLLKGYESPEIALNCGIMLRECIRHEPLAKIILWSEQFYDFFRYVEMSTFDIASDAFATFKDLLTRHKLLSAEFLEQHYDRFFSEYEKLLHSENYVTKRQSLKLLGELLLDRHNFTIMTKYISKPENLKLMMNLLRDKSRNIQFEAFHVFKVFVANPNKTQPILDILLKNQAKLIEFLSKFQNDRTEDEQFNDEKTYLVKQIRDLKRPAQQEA
In words: LKB1 kinase assay with recombinant LKB1 (LKB1 in vitro activation). The experiment is classed as biochemical. The source says: Screening in human cancer cell lines has identified cell lines responsive to LKB1 activation and predictive biomarkers for compound development have been determined. Installation of a novel polar functionality specifically designed to target STRAD's unique phosphate-binding residues led to the identification of compound SU-329 which is currently progressing through efficacy models evaluating tumor growth inhibition. The terms SU-329 and SU20668-0329-01 refer to the same compound.
Small Molecule Activation of the LKB1 Tumor Suppressor. Cancer treatment has been considerably advanced by the relatively recent development of small molecules capable of inhibiting oncogenic kinase signaling, but exogenous enhancement of tumor suppressive signaling remains elusive. Here, we sought to design small molecules capable of activating the tumor suppressor kinase LKB1. Designing compounds capable of increasing kinase activity has been more structurally challenging than those aimed at inhibiting them: apart from the ATP-binding pocket, there is rarely a site that would be conducive to binding a small molecule. Unlike most protein kinases, LKB1 signals as part of an obligate trimer consisting of itself, a scaffolding protein (MO25), and a pseudokinase (STRAD). As part of its mechanism of activation, LKB1 must bind to an ATP-bound STRAD to take on its active kinase conformation. […]

Turning to `COP(=O)(CS(=O)(=O)c1ccc(NC(=O)c2nc(-c3ccc(C)cc3)cnc2N)cc1)OC` [SU-329], in the experiment on ACHN cell line, the “response of LKB1 stimulation under inhibition of GSK-3” value is listed as “reduced the response of LKB1 stimulation”; the “response of LKB1 stimulation under inhibition of mTOR and components of the PI3K” value is “attenuated the response of LKB1 stimulation”. Moreover, the “LKB1 in vitro activation” value at LKB1 is on record as “Single digit micro-molar”.

Source of the values: patent publication US12195490B2, “STRAD-binding agents and uses thereof” (The Regents of the University of California, priority 2020, dated 2025).
